The record followed here is PMC9828044 (RSC Advances, 2023).

In assay [1] the target is T1, MAO A (Rattus norvegicus, UniProt P21396).
T1 sequence (P21396 1-526): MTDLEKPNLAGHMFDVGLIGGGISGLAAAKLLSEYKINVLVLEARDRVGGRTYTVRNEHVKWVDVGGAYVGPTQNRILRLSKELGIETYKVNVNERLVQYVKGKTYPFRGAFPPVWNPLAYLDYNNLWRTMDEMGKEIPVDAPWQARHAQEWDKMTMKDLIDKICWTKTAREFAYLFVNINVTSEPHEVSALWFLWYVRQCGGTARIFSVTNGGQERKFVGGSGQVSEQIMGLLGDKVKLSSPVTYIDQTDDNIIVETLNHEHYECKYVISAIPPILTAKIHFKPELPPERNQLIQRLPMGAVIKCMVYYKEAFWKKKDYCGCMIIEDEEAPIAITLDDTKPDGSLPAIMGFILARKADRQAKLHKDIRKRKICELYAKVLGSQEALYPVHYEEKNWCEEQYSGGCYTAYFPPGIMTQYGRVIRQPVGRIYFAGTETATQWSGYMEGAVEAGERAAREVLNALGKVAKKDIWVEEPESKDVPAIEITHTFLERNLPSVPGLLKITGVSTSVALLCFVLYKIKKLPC
Briefly: Monoamine oxidase A. In kind it is biochemical. The note with it: for inhibition at 100 µM: read-out: MAO A % inhibition; for dual inhibition on MAO A and MAO B: both isoforms; for dual inhibition on MAO A and MAO B / selective inhibition toward MAO A: in words; for selective inhibition toward MAO A: MAO A versus MAO B.

Assay [2] addresses T2, MAO B (Rattus norvegicus, UniProt P19643).
T2 sequence (P19643 1-520): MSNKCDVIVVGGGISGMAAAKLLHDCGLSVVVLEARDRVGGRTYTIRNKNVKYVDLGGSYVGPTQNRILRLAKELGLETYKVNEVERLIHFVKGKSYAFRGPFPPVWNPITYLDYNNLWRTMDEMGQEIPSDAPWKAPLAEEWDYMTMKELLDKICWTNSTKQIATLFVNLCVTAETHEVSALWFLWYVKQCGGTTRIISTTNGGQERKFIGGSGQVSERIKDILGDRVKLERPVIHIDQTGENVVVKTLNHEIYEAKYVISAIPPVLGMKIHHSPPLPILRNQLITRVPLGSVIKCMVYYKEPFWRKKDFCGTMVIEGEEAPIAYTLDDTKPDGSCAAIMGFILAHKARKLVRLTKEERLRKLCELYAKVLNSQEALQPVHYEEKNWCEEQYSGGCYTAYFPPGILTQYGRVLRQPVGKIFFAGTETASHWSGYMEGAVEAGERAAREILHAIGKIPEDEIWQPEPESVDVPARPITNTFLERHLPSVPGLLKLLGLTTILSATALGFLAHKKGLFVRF
Put plainly: Monoamine oxidase B. In kind it is biochemical. The note with it: for selective inhibition toward MAO B: MAO B versus MAO A, in words; for inhibition at 100 µM: read-out: MAO B % inhibition.

For orientation: inhibition means the drop in the measured response relative to a control, in per cent. Take `CC(=NN=C1CS(=O)(=O)N(C)c2ccccc21)c1ccc(Br)s1` [9h, 4-((1-(5-Bromothiophen-2-yl)ethylidene)hydrazono)-1-methyl-3,4-dihydro-1H-benzo[c][1,2]thiazine 2,2-dioxide]: the inhibition at 100 µM in assay [1] turned out to be 28.4%. Besides, in assay [2], the “selective inhibition toward MAO B” value was “selective inhibition toward the MAO B enzyme”. `CC(=NN=C1CS(=O)(=O)N(C)c2ccccc21)c1sccc1C` [9b, 1-Methyl-4-((1-(3-methylthiophen-2-yl)ethylidene)hydrazono)-3,4-dihydro-1H-benzo[c][1,2]thiazine 2,2-dioxide]: the inhibition at 100 µM in assay [1] came to 38.5%. With `COc1ccc2cc(C=NN=C3CS(=O)(=O)N(C)c4ccccc43)c(Cl)nc2c1` [7e, 4-(((2-Chloro-7-methoxyquinolin-3-yl)methylene)hydrazono)-1-methyl-3,4-dihydro-1H-benzo[c][1,2]thiazine 2,2-dioxide], the “dual inhibition on MAO A and MAO B” value in assay [1] was “dual inhibition on MAO A as well as MAO B”. Same read-out and setting: under `Cc1ccc2nc(Cl)c(C=NN=C3CS(=O)(=O)N(C)c4ccccc43)cc2c1` [7b, 4-(((2-Chloro-6-methylquinolin-3-yl)methylene)hydrazono)-1-methyl-3,4-dihydro-1H-benzo[c][1,2]thiazine 2,2-dioxide] stands “dual inhibition on MAO A as well as MAO B”; under `Cc1ccc2cc(C=NN=C3CS(=O)(=O)N(C)c4ccccc43)c(Cl)nc2c1` [7d, 4-(((2-Chloro-7-methylquinolin-3-yl)methylene)hydrazono)-1-methyl-3,4-dihydro-1H-benzo[c][1,2]thiazine 2,2-dioxide], “dual inhibition on MAO A as well as MAO B”.

Take `CC(=NN=C1CS(=O)(=O)N(C)c2ccccc21)c1sccc1Br` [9f, 4-((1-(3-Bromothiophen-2-yl)ethylidene)hydrazono)-1-methyl-3,4-dihydro-1H-benzo[c][1,2]thiazine 2,2-dioxide]: in assay [1], the inhibition at 100 µM was 41.6%. Besides, the “selective inhibition toward MAO B” value in assay [2] is reported as “selective inhibition toward the MAO B enzyme”. Turning to `CC(=NN=C1CS(=O)(=O)N(C)c2ccccc21)c1cc(C)cs1` [9c, 1-Methyl-4-((1-(4-methylthiophen-2-yl)ethylidene)hydrazono)-3,4-dihydro-1H-benzo[c][1,2]thiazine 2,2-dioxide], the inhibition at 100 µM in assay [1] stood at 39.1%.

With `CC(=NN=C1CS(=O)(=O)N(C)c2ccccc21)c1cccs1` [9a, 1-Methyl-4-((1-(thiophen-2-yl)ethylidene)hydrazono)-3,4-dihydro-1H-benzo[c][1,2]thiazine 2,2-dioxide], the inhibition at 100 µM in assay [1] stood at 2.09 ± 0.89%. As for `CN1c2ccccc2C(=NN=Cc2cc3ccc(Cl)cc3nc2Cl)CS1(=O)=O` [7f, 4-(((2,7-Dichloroquinolin-3-yl)methylene)hydrazono)-1-methyl-3,4-dihydro-1H-benzo[c][1,2]thiazine 2,2-dioxide], in assay [1], the “dual inhibition on MAO A and MAO B” value was “dual inhibition on MAO A as well as MAO B”; the inhibition at 100 µM worked out at 2.03 ± 0.91%. `COc1ccc2nc(Cl)c(C=NN=C3CS(=O)(=O)N(C)c4ccccc43)cc2c1` [7c, 4-(((2-Chloro-6-methoxyquinolin-3-yl)methylene)hydrazono)-1-methyl-3,4-dihydro-1H-benzo[c][1,2]thiazine 2,2-dioxide]: the “selective inhibition toward MAO A” value in assay [1] was “significant selective inhibition toward MAO A”. In assay [2], the inhibition at 100 µM stood at 35.8%. In the case of `CC(=NN=C1CS(=O)(=O)N(C)c2ccccc21)c1sccc1Cl` [9e, 4-((1-(3-Chlorothiophen-2-yl)ethylidene)hydrazono)-1-methyl-3,4-dihydro-1H-benzo[c][1,2]thiazine 2,2-dioxide], in assay [2], the inhibition at 100 µM was determined as 41.9%. On to `CC(=NN=C1CS(=O)(=O)N(C)c2ccccc21)c1ccc(C)s1` [9d, 1-Methyl-4-((1-(5-methylthiophen-2-yl)ethylidene)hydrazono)-3,4-dihydro-1H-benzo[c][1,2]thiazine 2,2-dioxide], for which the “selective inhibition toward MAO A” value in assay [1] is listed as “significant selective inhibition toward MAO A”. In assay [2], the inhibition at 100 µM is 31.1%. `CC(=NN=C1CS(=O)(=O)N(C)c2ccccc21)c1cc(C)sc1C` [9j, 4-((1-(2,5-Dimethylthiophen-3-yl)ethylidene)hydrazono)-1-methyl-3,4-dihydro-1H-benzo[c][1,2]thiazine 2,2-dioxide]: the inhibition at 100 µM in assay [1] was 26.3%. The “selective inhibition toward MAO B” value in assay [2] is reported as “selective inhibition toward the MAO B enzyme”. In the case of `CC(=NN=C1CS(=O)(=O)N(C)c2ccccc21)c1cc(Cl)sc1Cl` [9k, 4-((1-(2,5-Dichlorothiophen-3-yl)ethylidene)hydrazono)-1-methyl-3,4-dihydro-1H-benzo[c][1,2]thiazine 2,2-dioxide], the “dual inhibition on MAO A and MAO B” value in assay [1] was “dual inhibition on MAO A as well as MAO B”. Regarding `CC(=NN=C1CS(=O)(=O)N(C)c2ccccc21)c1ccc([N+](=O)[O-])s1` [9i, 1-Methyl-4-((1-(5-nitrothiophen-2-yl)ethylidene)hydrazono)-3,4-dihydro-1H-benzo[c][1,2]thiazine 2,2-dioxide], the inhibition at 100 µM in assay [1] stood at 39.8%. In addition, the “selective inhibition toward MAO B” value in assay [2] is on record as “selective inhibition toward the MAO B enzyme”. In the case of `CC(=NN=C1CS(=O)(=O)N(C)c2ccccc21)c1ccc(Cl)s1` [9g, 4-((1-(5-Chlorothiophen-2-yl)ethylidene)hydrazono)-1-methyl-3,4-dihydro-1H-benzo[c][1,2]thiazine 2,2-dioxide], the “dual inhibition on MAO A and MAO B” value in assay [1] is recorded as “dual inhibition on MAO A as well as MAO B”. On to `CN1c2ccccc2C(=NN=Cc2cc3ccccc3nc2Cl)CS1(=O)=O` [7a, 4-(((2-Chloroquinolin-3-yl)methylene)hydrazono)-1-methyl-3,4-dihydro-1H-benzo[c][1,2]thiazine 2,2-dioxide], for which the inhibition at 100 µM was 38.8% in assay [1] and 43.6% in assay [2].
